The target of data set [1] is T1, human cannabinoid CB1 receptor (Homo sapiens, UniProt P21554). Briefly: biochemical. It is filed as binding. Also noted: expressed in transfected cells; host or cells: Chinese hamster ovary (CHO) cells, membrane preparation. Particulars: [3H]CP-55,940 radioligand, CHO cell membranes stably transfected with human CB1. The procedure: After incubation of a freshly prepared cell membrane preparation with the [^3H]-ligand, with or without addition of compounds of the invention, separation of bound and free ligand was performed by filtration over glassfiber filters. Radioactivity on the filter was measured by liquid scintillation counting.

For data set [2], the target named is T1, human cannabinoid CB1 receptor. The data set is described as follows: Cannabinoid CB1 antagonistic activity, forskolin-induced cAMP accumulation in CHO cells. It is filed as cell-based. Also noted: expressed in transfected cells; host or cells: CHO cells. The procedure: The cannabinoid CB1 antagonistic activity of compounds of the invention was determined by functional studies using CHO cells in which human cannabinoid CB1 receptors were stably expressed. Adenylyl cyclase was stimulated using forskolin and measured by quantifying the amount of accumulated cyclic AMP. Concomitant activation of CB1 receptors by CB1 receptor agonists (e.g. CP-55,940 or (R)-WIN-55,212–2) can attenuate the forskolin-induced accumulation of cAMP in a concentration-dependent manner. This CB1 receptor-mediated response can be antagonized by CB1 receptor antagonists such as the compounds of the invention.
In general terms: Cyclic AMP is a second messenger, typically raised through Gs and lowered through Gi signalling.

[3] abbreviates: antagonism of CB1 agonist (e.g. CP-55,940 or (R)-WIN-55,212-2) effect on forskolin-induced cAMP accumulation, CHO cells expressing human CB1, read-out: hCB1 pA2 (converted).

Read-outs that look alike come from different tables or passages of the source. Bounds are passed on as bounds.

T1 sequence (P21554 whole entry): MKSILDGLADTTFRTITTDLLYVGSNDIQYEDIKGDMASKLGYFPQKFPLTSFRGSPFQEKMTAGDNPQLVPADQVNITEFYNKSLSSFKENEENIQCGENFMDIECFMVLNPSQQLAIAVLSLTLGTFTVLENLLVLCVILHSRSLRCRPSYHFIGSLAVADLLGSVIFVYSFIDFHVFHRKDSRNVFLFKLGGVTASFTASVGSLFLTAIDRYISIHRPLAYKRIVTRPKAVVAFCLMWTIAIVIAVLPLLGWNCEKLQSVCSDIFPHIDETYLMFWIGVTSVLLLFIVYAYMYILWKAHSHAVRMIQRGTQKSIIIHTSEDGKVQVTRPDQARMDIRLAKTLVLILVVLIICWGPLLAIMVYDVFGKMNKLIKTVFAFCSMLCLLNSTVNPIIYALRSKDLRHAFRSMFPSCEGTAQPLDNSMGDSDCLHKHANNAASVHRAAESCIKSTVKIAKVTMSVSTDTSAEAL

Consider `O=C(NN1CCCCC1)c1cn(-c2ccc(Cl)cc2)c(-c2ccc(Cl)cc2Cl)n1` [Example 1, 1-(4-chlorophenyl)-2-(2,4-dichlorophenyl)-N-(piperidin-1-yl)-1H-imidazole-4-carboxamide], for which the Ki in data set [1] (hCB1 pKi) was 12.6 nM. The “hCB1 pA2” value in data set [2] (antagonism of CB1 agonist (e.g. CP-55,940 or (R)-WIN-55,212-2) effect on forskolin-induced cAMP accumulation, CHO cells expressing human CB1) stood at 8.2.
For `O=C(NN1CCCC1)c1cn(-c2ccc(Cl)cc2)c(-c2ccc(Cl)cc2Cl)n1` [Example 2, 1-(4-Chlorophenyl)-2-(2,4-dichlorophenyl)-N-(pyrrolidin-1-yl)-1H-imidazole-4-carboxamide], in data set [1] (hCB1 pKi), the Ki is 100 nM. Also, the Kb in data set [2] (setting [3]) was 25.1 nM.
For `CC(C)(C)ONC(=O)c1cn(-c2ccc(Cl)cc2)c(-c2ccc(Cl)cc2Cl)n1` [Example 3, N-(t-Butoxy)-1-(4-chlorophenyl)-2-(2,4-dichlorophenyl)-1H-imidazole-4-carboxamide], the Ki in data set [1] (read-out: hCB1 pKi (converted)) is 158 nM. In data set [2], the Kb is 31.6 nM.
Turning to `O=C(NC1CCCCC1)c1cn(-c2ccc(Cl)cc2)c(-c2ccc(Cl)cc2Cl)n1` [Example 5, 1-(4-Chlorophenyl)-N-cyclohexyl-2-(2,4-dichlorophenyl)-1H-imidazole-4-carboxamide], the Ki in data set [1] (hCB1 pKi) was 79.4 nM. Moreover, in data set [2] (setting [3]), the Kb is 7.94 nM.
The compound `CN(Cc1ccccc1)C(=O)c1cn(-c2ccc(Cl)cc2)c(-c2ccc(Cl)cc2Cl)n1` [Example 6, N-(Benzyl)-1-(4-chlorophenyl)-2-(2,4-dichlorophenyl)-N-methyl-1H-imidazole-4-carboxamide] gave a Ki in data set [1] (hCB1 pKi) of 63.1 nM. Moreover, the Kb in data set [2] (setting [3]) is 50.1 nM.
For `Cc1c(C(=O)NN2CCCCC2)nc(-c2ccc(Cl)cc2)n1-c1ccc(Cl)cc1Cl` [Example 10, 2-(4-chlorophenyl)-1-(2,4-dichlorophenyl)-5-methyl-N-(piperidin-1-yl)-1H-imidazole-4-carboxamide], in that order: 316 nM and 7.94 nM.
On to `Cc1c(C(=O)NN2CCCCC2)nc(-c2ccc(Cl)cc2Cl)n1-c1ccc(Cl)cc1` [Example 12, 1-(4-Chlorophenyl)-2-(2,4-dichlorophenyl)-5-methyl-N-(piperidin-1-yl)-1H-imidazole-4-carboxamide], for which the Ki in data set [1] (hCB1 pKi) was 12.6 nM. Further, the Kb in data set [2] (setting [3]) is 1.26 nM.
The matching figures for `Cc1c(C(=O)NOC(C)(C)C)nc(-c2ccc(Cl)cc2Cl)n1-c1ccc(Cl)cc1` [Example 13, N-(t-Butoxy)-2-(2,4-dichlorophenyl)-1-(4-chlorophenyl)-5-methyl-1H-imidazole-4-carboxamide]: 79.4 nM and 3.16 nM.
As to `CCc1c(C(=O)NOC(C)(C)C)nc(-c2ccc(Cl)cc2Cl)n1-c1ccc(Cl)cc1` [Example 14, N-(t-Butoxy)-1-(4-chlorophenyl)-2-(2,4-dichlorophenyl)-5-ethyl-1H-imidazole-4-carboxamide], in data set [1] (hCB1 pKi), the Ki was 100 nM. In addition, the Kb in data set [2] (setting [3]) is 0.126 nM.
For the compound `CCc1c(C(=O)NN2CCCCC2)nc(-c2ccc(Cl)cc2Cl)n1-c1ccc(Cl)cc1` [Example 15, 1-(4-Chlorophenyl)-2-(2,4-dichlorophenyl)-5-ethyl-N-(piperidin-1-yl)-1H-imidazole-4-carboxamide], the Ki in data set [1] (hCB1 pKi) is 10 nM. Further, the Kb in data set [2] (setting [3]) is 0.501 nM.
Turning to `Cc1c(C(=O)NOC(C)(C)C)nc(-c2ccc(Cl)cc2Cl)n1-c1ccc(Br)cc1` [Example 16, 1-(4-Bromophenyl)-N-(t-butoxy)-2-(2,4-dichlorophenyl)-5-methyl-1H-imidazole-4-carboxamide], the Kb in data set [2] is 15.8 nM.
In the case of `CCCCCNC(=O)c1nc(-c2ccc(Cl)cc2Cl)n(-c2ccc(Br)cc2)c1CC` [Example 21, 1-(4-Bromophenyl)-2-(2,4-dichlorophenyl)-5-ethyl-N-(n-pentyl)-1H-imidazole-4-carboxamide], in data set [1] (hCB1 pKi), the Ki was 31.6 nM. The Kb in data set [2] (setting [3]) is below 1 nM.
Regarding `O=C(NN1CCCCC1)c1cn(-c2ccc(Br)cc2)c(-c2ccc(Cl)cc2Cl)n1` [Example 22, 1-(4-bromophenyl)-2-(2,4-dichlorophenyl)-N-(piperidin-1-yl)-1H-imidazole-4-carboxamide], the Ki in data set [1] (read-out: hCB1 pKi (converted)) is 398 nM. In addition, in data set [2], the Kb is 10 nM.
What is called melting point is the temperature of the solid-liquid transition. `CCc1c(C(=O)NC2CCCCC2)nc(-c2ccc(Cl)cc2Cl)n1-c1ccc(Cl)cn1` [Example 78, 1-(5-Chloropyridin-2-yl)-N-cyclohexyl-2-(2,4-dichlorophenyl)-5-ethyl-1H-imidazole-4-carboxamide] gave a melting point of 149 °C. The Ki in data set [1] (hCB1 pKi) is 3.16 nM.
The matching figures for `Cc1c(C(=O)Nc2ccccc2)nc(-c2ccc(Cl)cc2Cl)n1-c1ccc(Cl)cc1` [Example 82, 1-(4-Chlorophenyl)-2-(2,4-dichlorophenyl)-5-methyl-N-phenyl-1H-imidazole-4-carboxamide]: 91 to 95 °C and 2.51 nM.
In turn, `Cc1c(C(=O)NOC2CCCCO2)nc(-c2ccc(Cl)cc2Cl)n1-c1ccc(Cl)cc1` (centres unmarked) [Example 83, 1-(4-Chlorophenyl)-2-(2,4-dichlorophenyl)-5-methyl-N-(tetrahydro-2H-pyran-2-yloxy)-1H-imidazole-4-carboxamide] displayed a melting point of 128 to 133 °C. The compound further showed a Ki in data set [1] (hCB1 pKi) of 3.98 nM.
For `Cc1c(C(=O)NCCF)nc(-c2ccc(Cl)cc2Cl)n1-c1ccc(Cl)cc1` [Example 85, 1-(4-Chlorophenyl)-2-(2,4-dichlorophenyl)-N-(2-fluoroethyl)-5-methyl-1H-imidazole-4-carboxamide], in that order: 128 to 133 °C and 25.1 nM.
As for `Cc1c(C(=O)NCc2ccc(F)cc2)nc(-c2ccc(Cl)cc2Cl)n1-c1ccc(Cl)cc1` [Example 90, 1-(4-Chlorophenyl)-2-(2,4-dichlorophenyl)-N-(4-fluorobenzyl)-5-methyl-1H-imidazole-4-carboxamide], the melting point is 165 to 166 °C. Besides, the Ki in data set [1] (hCB1 pKi) was 10 nM.
`Cc1c(C(=O)NN2CCCCC2)nc(-c2cc(Cl)ccc2Cl)n1-c1ccccc1` [Example 95, 2-(2,5-Dichlorophenyl)-5-methyl-1-phenyl-N-(piperidin-1-yl)-1H-imidazole-4-carboxamide] gave a melting point of 227 °C. Further, the Ki in data set [1] (hCB1 pKi) is 63.1 nM.
The matching figures for `Cc1c(C(=O)NC2CCCCC2)nc(-c2cc(Cl)ccc2Cl)n1-c1ccccc1` [Example 96, N-Cyclohexyl-2-(2,5-dichlorophenyl)-5-methyl-1-phenyl-1H-imidazole-4-carboxamide]: 236 °C and 6.31 nM.
For `Cc1c(C(=O)Nc2cccc(C(F)(F)F)c2)nc(-c2ccc(Cl)cc2Cl)n1-c1ccc(Cl)cc1` [Example 104, 1-(4-Chlorophenyl)-2-(2,4-dichlorophenyl)-5-methyl-N-(3-(trifluoromethyl)phenyl)-1H-imidazole-4-carboxamide], in that order: 177 °C and 6.31 nM.
Compound `Cc1c(C(=O)NCc2cccc(C(F)(F)F)c2)nc(-c2ccc(Cl)cc2Cl)n1-c1ccc(Cl)cc1` [Example 105, 1-(4-Chlorophenyl)-2-(2,4-dichlorophenyl)-5-methyl-N-(3-(trifluoromethyl)benzyl)-1H-imidazole-4-carboxamide] displayed a melting point of 138 to 140 °C. Also, the Ki in data set [1] (hCB1 pKi) is 31.6 nM.
The matching figures for `O=C(NC1CCCCC1)c1nc(-c2ccc(Cl)cc2Cl)n(-c2ccc(Cl)cc2)c1I` [Example 112, 1-(4-Chlorophenyl)-N-cyclohexyl-2-(2,4-dichlorophenyl)-5-iodo-1H-imidazole-4-carboxamide]: 226 to 230 °C and 6.31 nM.
For `N#Cc1c(C(=O)NC2CCCCC2)nc(-c2ccc(Cl)cc2Cl)n1-c1ccc(Cl)cc1` [Example 113, 1-(4-Chlorophenyl)-5-cyano-N-cyclohexyl-2-(2,4-dichlorophenyl)-1H-imidazole-4-carboxamide], in that order: 157 to 158 °C and 15.8 nM.
For `O=C(NN1CCCCC1)c1nc(-c2ccc(Cl)cc2Cl)n(-c2ccc(Cl)cc2)c1CF` [Example 114, 1-(4-chlorophenyl)-2-(2,4-dichlorophenyl)-5-fluoromethyl-N-(piperidin-1-yl)-1H-imidazole-4-carboxamide], in that order: 162 to 163 °C and 63.1 nM.
The compound `O=C(NN1CCCCC1)c1nc(-c2ccc(Cl)cc2Cl)n(-c2ccc(Cl)cc2)c1CO` [Example 115, 1-(4-chlorophenyl)-2-(2,4-dichlorophenyl)-5-hydroxymethyl-N-(piperidin-1-yl)-1H-imidazole-4-carboxamide] displayed a melting point of 212 to 214 °C. Also, in data set [1] (hCB1 pKi), the Ki was 31.6 nM.
`CCc1c(C(=O)NN2CCCCC2)nc(-c2ccccc2Cl)n1-c1ccc(Cl)cn1` [Example 116, 1-(5-chloropyrid-2-yl)-2-(2-chlorophenyl)-5-ethyl-N-(piperidin-1-yl)-1H-imidazole-4-carboxamide] had a melting point of 217 to 219 °C. Moreover, in data set [1] (hCB1 pKi), the Ki was 12.6 nM.
